Test results reported in US20110224240A1 (Myrexis, Inc., priority 2010, published 2011).
Where “and” joins values, the source holds several entries; their conditions need not be identical. Equal values may be shown once. Read-outs that look alike come from different tables or passages of the source.

Columns and labels:
A549 = assay: 72 hour cytotoxicity, ATP-Lite cell viability; assay type: cell-based; conditions: Homo sapiens, A549, Lung, read-out: 72 Hour Cytotoxicity (IC50, nM ± SD)
Protocol: (§1) A P388 murine leukemia cell line was obtained from NCI, Frederick, Md. P388 cells were cultured in RPMI-1640 supplemented with 10% fetal bovine serum, 2 mM Glutamax, 1 mM sodium pyruvate, 0.1 mM non-essential amino acids and 10 mM HEPES. Cells were grown at 37° C. in a humidified 5% CO2 atmosphere. Exponentially growing P388 cells were plated at 5,000 cells/well in a 96-well flat-bottomed microtiter plate (Corning, Costar #3595, Lowell, Mass.). Twenty-four hours later, test compound was added to cells at final concentrations of 100 nM, 33.3 nM, 11.1 nM, 3.7 nM, 1.23 nM, 0.4 nM and 0.13 nM. Cellular viability was determined 72 hours later by measuring intracellular ATP with ATP-Lite assay system. The effect of compounds on cell viability was calculated by comparing the ATP levels of cells exposed to test compound with those of cells exposed to DMSO. A semi-log plot of relative ATP levels versus compound concentration was used to calculate the compound concentration required to inhibit growth by 50% (IC50). Data was analyzed by Prism software (GraphPad; San Diego, Calif.) by fitting it to a sigmoidal dose response curve.
(§2) A similar procedure was followed with six other cell lines and the results are shown in Table 1: HT-29, HCT-116, A549, OVCAR-3, MIAPaCa-2, and B16F1.

HT-29 = assay: 72 hour cytotoxicity, ATP-Lite cell viability; assay type: cell-based; conditions: Homo sapiens, HT-29, Colorectal, read-out: 72 Hour Cytotoxicity (IC50, nM ± SD)
Protocol: as §1, §2

MIAPaCa-2 = assay: 72 hour cytotoxicity, ATP-Lite cell viability; assay type: cell-based; conditions: Homo sapiens, MIA PaCa-2, MIAPaCa-2, Pancreatic, read-out: 72 Hour Cytotoxicity (IC50, nM ± SD)
Protocol: as §1, §2

OVCAR-3 = assay: 72 hour cytotoxicity, ATP-Lite cell viability; assay type: cell-based; conditions: Homo sapiens, OVCAR-3, Ovarian, read-out: 72 Hour Cytotoxicity (IC50, nM ± SD)
Protocol: as §1, §2

HCT-116 = assay: 72 hour cytotoxicity, ATP-Lite cell viability; assay type: cell-based; conditions: Homo sapiens, HCT-116, Colorectal Carcinoma, read-out: 72 Hour Cytotoxicity (IC50, nM ± SD)
Protocol: as §1, §2

B16F1 = assay: 72 hour cytotoxicity, ATP-Lite cell viability; assay type: cell-based; conditions: Mus musculus, B16-F1, B16F1, Melanoma, read-out: 72 Hour Cytotoxicity (IC50, nM ± SD)
Protocol: as §1, §2

[1] = Pharmacokinetic study in mice, brain; assay type: in vivo
Protocol: (§3) Animals were dosed with approximately 2.5 mg/kg i.v. in the tail vein or 5, 10, 30, or 60 mg/kg p.o. in fed and 60 mg/kg p.o. in a fasted state. Blood samples and whole brains were collected from five mice at each of the […] collection time points (approximately 0.05, 0.25, 1.0, 2.0, 4.0, 8.0, 12.0 and 24.0 hours) after administration of the dose. Plasma was collected from blood samples, and whole brain sample were homoginized. Both tissues were analyzed for the concentration of Compound 1. Pharmacokinetic parameters were estimated by non-compartmental analysis using WinNonlin.

[2] = Pharmacokinetic study in mice, plasma; assay type: in vivo
Protocol: as §3

MCF-7/VP (MRP-1) = assay: Multidrug resistant cell assay, cytotoxicity; conditions: Homo sapiens, MCF7-VP, 72 h, read-out: Various MDR Cell Line Cytotoxicity IC50
P388 = assay: Multidrug resistant cell assay, cytotoxicity; assay type: cell-based, murine; conditions: Mus musculus, P388, 72 h, read-out: Various MDR Cell Line Cytotoxicity IC50
MCF-7 = assay: Multidrug resistant cell assay, cytotoxicity; assay type: cell-based; conditions: Homo sapiens, MCF7, 72 h, read-out: Various MDR Cell Line Cytotoxicity IC50
B16-F0 tumor = assay: B16-F0 melanoma allograft study in nude mice; assay type: in vivo; conditions: melanoma (B16-F0) allografts in nude mice, oral dosing (50 mg/kg qd×5 or 200 mg/kg qwk×2 p.o.), relative to vehicle
Protocol: Female Crl:Nu/Nu-nuBR mice (Charles River Labs, Wilmington, Mass.) were implanted subcutaneously with 10^6 B16-F0 cells in the right flank. Animals were housed by groups in Positive Individual Ventilation cages in flat-bottom cages with no more than ten mice per cage. Environmental controls were set to maintain a temperature between 65 and 75° F. with a relative humidity of 30-70% in a 12:12 hour light:dark cycle. Animals were fed and watered ad libitum. Tumors were allowed to grow to approximately 100 mm^3 and then mice were placed into test groups (N=10). Animals were treated with vehicle, 50 mg/kg Compound 1 qd×5 p.o. or 200 mg/kg Compound 1 qwk×2 p.o. The mice were observed daily for mortality and signs of toxicity. Tumor growth was monitored externally using a caliper and volumes calculated using the formula [p/6 (width^2×length)], in which width represents the smaller tumor diameter. Studies were completed when the first animal achieved a tumor volume >1500 mm^3. Statistical analysis of variance with unadjusted pair wise comparison was performed using SAS software (Cary, N.C.).

[3] = Swiss Webster, mouse, plasma, iv, 2.5 mg/kg, mice, Not Fasted
[4] = Swiss Webster, mouse, plasma, po, 60 mg/kg, mice, Fasted
[5] = Swiss Webster, mouse, plasma, po, 60 mg/kg, mice, Not Fasted

COc1ccc(N(C)c2nc(CN)nc3ccccc23)cc1 [Compound 1]
IC50 (A549): 54 nM
IC50 (HT-29): 29 ± 2 nM
IC50 (MIAPaCa-2): 56 nM
IC50 (OVCAR-3): 29 ± 20.1 nM
IC50 (HCT-116): 7.6 ± 1.9 nM
IC50 (B16F1): 37 nM
Kp ([1]; Swiss Webster, mouse, brain, other: oral or intravenous, after oral or intravenous dosing, read-out: exposure in the brain relative to that in the plasma): ~7
Tmax ([1]; Swiss Webster, mouse, brain, mice, Not Fasted, PO, 60 mg/kg): 2 h
half-life ([1]; Swiss Webster, mouse, brain, mice, Not Fasted, PO, 60 mg/kg, read-out: Brain t½ (converted)): 540 min
Brain AUC(0-inf) ([1]; mice, Not Fasted, PO, 60 mg/kg): 77290 ng·h/mL
Brain CL ([1]; mice, Not Fasted, PO, 60 mg/kg): 776 mL/h/kg
Brain Cmax ([1]; mice, Not Fasted, PO, 60 mg/kg): 6030 ng/mL and 20.4 μM
Brain V ([1]; mice, Not Fasted, PO, 60 mg/kg): 10109 mL/kg
Kp ([1]; mouse, brain, po, Swiss Webster mice, single 60 mg/kg p.o. dose, read-out: Brain concentrations relative to plasma levels (AUC0-∞)): ~7
AUC(0-inf) [2, 3]: 467 ng·h/mL
Cmax [2, 3]: 513 ng/mL and 1.7 µM
Tmax [2, 3]: 3 min
half-life ([2]; Swiss Webster, mouse, plasma, iv, 2.5 mg/kg, mice, Not Fasted, IV, 2.5 mg/kg, read-out: Plasma t½ (converted)): 372 min
half-life ([2]; Swiss Webster, mouse, plasma, po, 60 mg/kg, 60 mg/kg dose in mice, oral, read-out: half life (t1/2) (converted)): ~600 min
bioavailability ([2]; Swiss Webster, mouse, plasma, po, 60 mg/kg, 60 mg/kg dose in mice, read-out: oral bioavailability): ~100%
AUC(0-inf) [2, 4]: 12900 ng·h/mL
Cmax [2, 4]: 1090 ng/mL and 3.7 µM
Tmax [2, 4]: 60 min
bioavailability ([2]; Swiss Webster, mouse, plasma, po, 60 mg/kg, mice, Fasted, PO, 60 mg/kg, read-out: % F): 115%
half-life ([2]; Swiss Webster, mouse, plasma, po, 60 mg/kg, mice, Fasted, PO, 60 mg/kg, read-out: Plasma t½ (converted)): 1100 min
AUC(0-inf) [2, 5]: 10700 ng·h/mL
Cmax [2, 5]: 1120 ng/mL and 3.8 µM
Tmax [2, 5]: 15 min
bioavailability ([2]; Swiss Webster, mouse, plasma, po, 60 mg/kg, mice, Not Fasted, PO, 60 mg/kg, read-out: % F): 96%
half-life ([2]; Swiss Webster, mouse, plasma, po, 60 mg/kg, mice, Not Fasted, PO, 60 mg/kg, read-out: Plasma t½ (converted)): 648 min
clearance ([2]; Swiss Webster, mouse, plasma, mice, Not Fasted, IV, 2.5 mg/kg, read-out: Plasma CL (converted)): 89.3 mL/min/kg
bioavailability after oral dosing ([2]; mice): almost completely bioavailable
oral dose proportionality to plasma Cmax ([2]; mice dosed orally up to at least 60 mg/kg): Dose proportional increases in Cmax
differences in pharmacokinetics between fed and fasted animals ([2]; mice, 60 mg/kg p.o.): No significant differences in pharmacokinetics
Plasma CL ([2]; mice, Fasted, PO, 60 mg/kg): 77.8 mL/min/kg
Plasma V ([2]; mice, Fasted, PO, 60 mg/kg): 123424 mL/kg
Plasma V ([2]; mice, Not Fasted, IV, 2.5 mg/kg): 47759 mL/kg
Plasma CL ([2]; mice, Not Fasted, PO, 60 mg/kg): 93.05 mL/min/kg
Plasma V ([2]; mice, Not Fasted, PO, 60 mg/kg): 86914 mL/kg
IC50 (MCF-7/VP (MRP-1)): 13 nM
IC50 (P388): 18 nM
IC50 (MCF-7): 27 nM
inhibition of tumor growth (B16-F0 tumor): Statistically significant (p<0.00005) inhibition of tumor growth
